Data on two molecules can be found in ChEMBL document CHEMBL3045862, “PRE-CLINICAL AND CLINICAL PHARMACOKINETICS OF THE DIASTEREOMERS OF ARTEETHER, A POTENT ANTIMALARIAL” (Med Chem Res, 2004).

The term AUC(0-inf) denotes the area under the concentration-time curve extrapolated to infinity. As usually defined, the CL/F is the apparent clearance, not corrected for the fraction that reaches the circulation. In general, Cmax refers to the maximum level reached in the sampled fluid or tissue. One may read the clearance as the volume of plasma or blood freed of the substance per unit of time. What is called AUC is concentration integrated over time.

A short description of series [1]: (§1) AUC (0 to infinity) in Rattus norvegicus Sprague-Dawley (rat) at 30 mg/kg, administered intramuscularly. In kind it is ADME, organism-based, Plasma. Details: time infinity, dose 30 mg/kg, route intramuscular. As to conditions: Sprague-Dawley, plasma, im.
The nature of series [2]: (§2) Clearance in Rattus norvegicus Sprague-Dawley (rat) at 30 mg/kg, administered intramuscularly. In kind it is ADME, organism-based. Details: dose 30 mg/kg, route intramuscular. As to conditions: Sprague-Dawley, in vivo, im.
The nature of series [3]: Cmax in Rattus norvegicus Sprague-Dawley (rat) at 17.5 mg/kg, administered intramuscularly. On the set-up: dose 17.5 mg/kg, route intramuscular. As to conditions: in vivo, im. In kind it is ADME, organism-based.
Series [4] concerns Rattus norvegicus. Kind of series: Dose normalized AUC in Rattus norvegicus Sprague-Dawley (rat) at 17.5 mg/kg, po. As to conditions: in vivo. On the set-up: dose 17.5 mg/kg, route oral. In kind it is ADME, organism-based.
The nature of series [5]: (§3) AUC (0 to infinity) in Rattus norvegicus Sprague-Dawley (rat) at 9 mg/kg, administered intramuscularly. In kind it is ADME, organism-based, Plasma. Details: time infinity, dose 9 mg/kg, route intramuscular. The settings on record: Sprague-Dawley, plasma, im.
Series [6] can be described thus: (§4) Clearance in Macaca mulatta (Rhesus monkey) at 4 mg/kg, iv. In kind it is ADME, organism-based. The settings on record: in vivo. Details: dose 4 mg/kg, route intravenous.
Series [7] can be described thus: (§5) AUC (0 to infinity) in Macaca mulatta (Rhesus monkey) at 50 mg/kg, po. In kind it is ADME, organism-based, Plasma. Details: time infinity, dose 50 mg/kg, route oral. As to conditions: plasma.
The nature of series [8]: (§6) AUC (0 to infinity) in Macaca mulatta (Rhesus monkey) at 4 mg/kg, iv. In kind it is ADME, organism-based, Plasma. On the set-up: time infinity, dose 4 mg/kg, route intravenous. The settings on record: plasma.
Series [9] can be described thus: (§7) AUC (0 to infinity) in Rattus norvegicus Sprague-Dawley (rat) at 17.5 mg/kg, administered intramuscularly. In kind it is ADME, organism-based, Plasma. On the set-up: dose 17.5 mg/kg, route intramuscular, time infinity. The settings on record: Sprague-Dawley, plasma, im.
For the next series, the species on record is Homo sapiens. Description: Dose normalized AUC in Homo sapiens (human) at 150 mg. As to conditions: in vivo. In kind it is ADME, organism-based.
Series [10] concerns Rattus norvegicus. Kind of series: Dose normalized AUC in Rattus norvegicus Sprague-Dawley (rat) at 2 mg/kg, iv. In kind it is ADME, organism-based. On the set-up: dose 2 mg/kg, route intravenous. The settings on record: in vivo.
Series [11] can be described thus: (§8) AUC (0 to infinity) in Rattus norvegicus Sprague-Dawley (rat) at 17.5 mg/kg, po. As to conditions: Sprague-Dawley, plasma. In kind it is ADME, organism-based, Plasma. On the set-up: time infinity, dose 17.5 mg/kg, route oral.
A short description of series [12]: (§9) AUC (0 to infinity) in Rattus norvegicus Sprague-Dawley (rat) at 2 mg/kg, iv. In kind it is ADME, organism-based, Plasma. Details: time infinity, dose 2 mg/kg, route intravenous. The settings on record: Sprague-Dawley, plasma.
Series [13] is described as follows: (§10) AUC (0 to infinity) in Macaca mulatta (Rhesus monkey) at 7.5 mg/kg, administered intramuscularly. In kind it is ADME, organism-based, Plasma. Details: time infinity, dose 7.5 mg/kg, route intramuscular. The settings on record: plasma, im.
Series [14] can be described thus: (§11) Clearance in Rattus norvegicus Sprague-Dawley (rat) at 17.5 mg/kg, administered intramuscularly. In kind it is ADME, organism-based. As to conditions: Sprague-Dawley, in vivo, im. Details: dose 17.5 mg/kg, route intramuscular.
Series [15] is described as follows: (§12) Clearance in Rattus norvegicus Sprague-Dawley (rat) at 9 mg/kg, administered intramuscularly. In kind it is ADME, organism-based. On the set-up: dose 9 mg/kg, route intramuscular. As to conditions: Sprague-Dawley, in vivo, im.
The nature of series [16]: (§13) AUC (0 to infinity) in Rattus norvegicus Sprague-Dawley (rat) at 9 mg/kg, po. In kind it is ADME, organism-based, Plasma. Details: time infinity, dose 9 mg/kg, route oral. As to conditions: Sprague-Dawley, plasma.
A short description of series [17]: (§14) Clearance in Rattus norvegicus Sprague-Dawley (rat) at 2 mg/kg, iv. As to conditions: Sprague-Dawley, in vivo. On the set-up: dose 2 mg/kg, route intravenous. In kind it is ADME, organism-based.
Series [18] in a line: (§15) AUC (0 to infinity) in Rattus norvegicus Sprague-Dawley (rat) at 30 mg/kg, po. In kind it is ADME, organism-based, Plasma. On the set-up: time infinity, dose 30 mg/kg, route oral. As to conditions: Sprague-Dawley, plasma.
The nature of series [19]: (§16) Clearance in Rattus norvegicus Sprague-Dawley (rat) at 9 mg/kg, po. In kind it is ADME, organism-based. Details: dose 9 mg/kg, route oral. As to conditions: Sprague-Dawley, in vivo.
Series [20] can be described thus: (§17) Clearance in Macaca mulatta (Rhesus monkey) at 7.5 mg/kg, administered intramuscularly. As to conditions: in vivo, im. In kind it is ADME, organism-based. Details: dose 7.5 mg/kg, route intramuscular.
A short description of series [21]: (§18) Clearance in Rattus norvegicus Sprague-Dawley (rat) at 17.5 mg/kg, po. In kind it is ADME, organism-based. On the set-up: dose 17.5 mg/kg, route oral. As to conditions: Sprague-Dawley, in vivo.
Series [22] deals with Rattus norvegicus. Described as §1. The settings on record: in vivo, im. Details: time infinity, dose 30 mg/kg, route intramuscular. In kind it is ADME, organism-based, Plasma.
The subject of series [23] is Rattus norvegicus. The series is described as §2. In kind it is ADME, organism-based. Details: dose 30 mg/kg, route intramuscular. As to conditions: in vivo, im.
In series [24] the test system is Rattus norvegicus. The description is as §3. In kind it is ADME, organism-based, Plasma. On the set-up: time infinity, dose 9 mg/kg, route intramuscular. The settings on record: in vivo, im.
Series [25] has as its system Rhesus monkey. Description: Volume of distribution in Macaca mulatta (Rhesus monkey) at 50 mg/kg, po. In kind it is ADME, organism-based. Details: dose 50 mg/kg, route oral. The settings on record: in vivo.
For series [26], the system named is Rhesus monkey. The series is described as §4. In kind it is ADME, organism-based. On the set-up: dose 4 mg/kg, route intravenous. As to conditions: in vivo.
Series [27] has as its system Rhesus monkey. The description is as §5. In kind it is ADME, organism-based, Plasma. Details: time infinity, dose 50 mg/kg, route oral. The settings on record: in vivo.
The subject of series [28] is Rattus norvegicus. Kind of series: Clearance in Rattus norvegicus Sprague-Dawley (rat) at 30 mg/kg, po. In kind it is ADME, organism-based. Details: dose 30 mg/kg, route oral. As to conditions: in vivo.
The test system of series [29] is Rhesus monkey. The description is as §6. As to conditions: in vivo. On the set-up: time infinity, dose 4 mg/kg, route intravenous. In kind it is ADME, organism-based, Plasma.
Series [30] has as its system Rattus norvegicus. Described as §7. In kind it is ADME, organism-based, Plasma. As to conditions: in vivo, im. On the set-up: dose 17.5 mg/kg, route intramuscular, time infinity.
The subject of series [31] is Rattus norvegicus. Described as §8. In kind it is ADME, organism-based, Plasma. On the set-up: time infinity, dose 17.5 mg/kg, route oral. As to conditions: in vivo.
The test system of series [32] is Rattus norvegicus. Described as §9. Details: time infinity, dose 2 mg/kg, route intravenous. As to conditions: in vivo. In kind it is ADME, organism-based, Plasma.
Series [33] has as its system Rhesus monkey. The description is as §10. In kind it is ADME, organism-based, Plasma. On the set-up: time infinity, dose 7.5 mg/kg, route intramuscular. The settings on record: in vivo, im.
For series [34], the system named is Rattus norvegicus. Described as §11. The settings on record: in vivo, im. In kind it is ADME, organism-based. Details: dose 17.5 mg/kg, route intramuscular.
Series [35] has as its system Rattus norvegicus. Described as §12. In kind it is ADME, organism-based. On the set-up: dose 9 mg/kg, route intramuscular. As to conditions: in vivo, im.
Series [36] concerns Rattus norvegicus. Described as §13. In kind it is ADME, organism-based, Plasma. Details: time infinity, dose 9 mg/kg, route oral. The settings on record: in vivo.
Series [37] concerns Rattus norvegicus. Described as §14. In kind it is ADME, organism-based. Details: dose 2 mg/kg, route intravenous. The settings on record: in vivo.
Series [38] relates to Rattus norvegicus. The series is described as §15. In kind it is ADME, organism-based, Plasma. On the set-up: time infinity, dose 30 mg/kg, route oral. The settings on record: in vivo.
The subject of series [39] is Rattus norvegicus. The description is as §16. The settings on record: in vivo. In kind it is ADME, organism-based. Details: dose 9 mg/kg, route oral.
The test system of series [40] is Rhesus monkey. Described as §17. In kind it is ADME, organism-based. Details: dose 7.5 mg/kg, route intramuscular. The settings on record: in vivo, im.
For series [41], the system named is Rattus norvegicus. The series is described as §18. As to conditions: in vivo. In kind it is ADME, organism-based. On the set-up: dose 17.5 mg/kg, route oral.

For `CCO[C@H]1O[C@@H]2O[C@@]3(C)CC[C@H]4[C@H](C)CC[C@@H]([C@H]1C)[C@@]24OO3` [ARTEMOTIL], the AUC(0-inf) in series [1] was 407 ng·h/mL; in series [5] it was 1180 ng·h/mL; in series [7], 8.5 ng·h/mL; in series [8], 1220 ng·h/mL; in series [9], 2410 ng·h/mL; in [11], 33.9 ng·h/mL. Besides, the AUC(0-inf) in [12] is 185 ng·h/mL; in series [13] it was 746 ng·h/mL; in series [16] it was 46.8 ng·h/mL; in series [18] it was 25.6 ng·h/mL. The CL/F in series [2] was 762 mL/min/kg; in series [14], 83.3 mL/min/kg; in [15], 86.7 mL/min/kg; in series [19], 2120 mL/min/kg; in series [20], 118 mL/min/kg; in [21] it was 5060 mL/min/kg. In series [3], this molecule showed a Cmax of 136 ng/mL. Besides, the AUC/dose with Rattus norvegicus [4] was determined as 2.8 ng·h/mL; in the series filed under Homo sapiens it was 1315.7 ng·h/mL; in the series with Rattus norvegicus [10], 132 ng·h/mL. In addition, the clearance in [6] was 38.3 mL/min/kg; in series [17] it was 127 mL/min/kg.

With `CCO[C@@H]1O[C@@H]2O[C@]3(C)CC[C@H]4[C@H](C)CC[C@@H]([C@H]1C)[C@@]24OO3` [ALPHA-ARTEETHER], the AUC in the series on Rattus norvegicus [22] is 601.1 ng·h/mL; in the series with Rattus norvegicus [24] it was 1058.5 ng·h/mL; in the series with Rhesus monkey [27], 6.6 ng·h/mL; in the series on Rhesus monkey [29], 754.4 ng·h/mL; with Rattus norvegicus [30], 1247.1 ng·h/mL; in the series on Rattus norvegicus [31] it was 50.9 ng·h/mL. Further, the AUC with Rattus norvegicus [32] is 131.7 ng·h/mL; in the series on Rhesus monkey [33], 641.8 ng·h/mL; in the series on Rattus norvegicus [36] it was 73.8 ng·h/mL; in the series with Rattus norvegicus [38], 111.5 ng·h/mL. In addition, the CL with Rattus norvegicus [23] was determined as 247 mL/min/kg; in the series on Rhesus monkey [26], 26.7 mL/min/kg; in the series with Rattus norvegicus [28], 1330 mL/min/kg; in the series on Rattus norvegicus [34] it was 68.3 mL/min/kg; with Rattus norvegicus [35] it was 40 mL/min/kg; in the series on Rattus norvegicus [37], 75 mL/min/kg. Further, the CL worked out at 600 mL/min/kg with Rattus norvegicus [39], 61.7 mL/min/kg in the series on Rhesus monkey [40] and 1708 mL/min/kg with Rattus norvegicus [41]. In series [3], this molecule returned a Cmax of 184 ng/mL. Moreover, the AUC/dose with Rattus norvegicus [4] amounted to 9.7 ng·h/mL; in the series filed under Homo sapiens, 1721.9 ng·h/mL; with Rattus norvegicus [10], 219.5 ng·h/mL. In the series with Rhesus monkey [25], the Vd was 7148.8 L/kg.
